Data from patent US9029337B2, “Modulation of factor 7 expression” (Isis Pharmaceuticals, Inc., priority 2007, dated 2015).
Strand notation (5' to 3'): a small letter for the sugar, then the base; units joined by * are phosphorothioate-linked, units joined directly phosphodiester-linked; [ ] holds rarer units or linkages, { } end groups; capitals alone tell only the bases. e = 2'-O-(2-methoxyethyl) (MOE); [5mC] = 5-methylcytosine; d = 2'-deoxy (DNA)

Tests used:
human Factor 7 mRNA = assay: Antisense inhibition of human Factor 7 with short (14-mer) oligonucleotides in HepB3 cells, electroporation 1,000 nM; format: cell-based; details: electroporation, 1,000 nM antisense oligonucleotide, approximately 24 hours, Factor 7 mRNA relative to untreated control cells
Outline: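 14-mer 2-10-2 MOE gapmers (full phosphorothioate, 5-methyl-C) electroporated at 1,000 nM into HepB3 cells at 20,000 cells/well. After ~24 h, Factor 7 mRNA by real-time RT-PCR, normalized to RiboGreen total RNA. Reported as % inhibition relative to untreated cells.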

murine Factor 7 mRNA = assay: Liver Factor 7 mRNA in the FeCl3 induced venous thrombosis model; format: in vivo, mouse; details: for % inhibition of Factor 7 mRNA: liver; for % inhibition of Factor 7 mRNA, relative to PBS control: BALB/c mice liver, two days after last dose
Protocol: (§1) Three groups of BALB/c mice were injected with 25 mg/kg, 37.5 mg/kg, or 50 mg/kg of ISIS 403102, administered subcutaneously twice a week for 3 weeks. Two control groups of BALB/c mice were treated with PBS, administered subcutaneously twice a week for 3 weeks. Thrombus formation was induced with FeCl3 in half of the mice while the rest of the mice were assayed for tail bleeding. Two days after receiving the last dose of ISIS 403102 or PBS, mice were anesthetized with 150 mg/kg ketamine mixed with 10 mg/kg xylazine administered by intraperitoneal injection. Thrombus formation was induced with FeCl3 in all groups of the VT mice except the first control group.
(§2) In mice undergoing FeCl3 treatment, thrombus formation was induced by applying a piece of filter paper (2×4 mm) pre-saturated with 10% FeCl3 solution directly on the vena cava. After 3 minutes of exposure, the filter paper was removed. Thirty minutes after the filter paper application, a fixed length of the vein containing the thrombus was dissected out for platelet analysis. Liver was collected for RNA analysis.
RNA was extracted from liver tissue for real-time RT-PCR analysis of Factor 7. Results are presented as percent inhibition of Factor 7, relative to PBS control.
ISIS 403102 and warfarin (Coumadin®) were evaluated in BALB/c mice. Four groups of BALB/c mice were treated with 5 mg/kg, 10 mg/kg, 20 mg/kg, or 40 mg/kg of ISIS 403102, administered subcutaneously twice a week for 3 weeks. Two days after receiving the last dose of ISIS 403102, mice were anesthetized with 150 mg/kg ketamine mixed with 10 mg/kg xylazine administered by intraperitoneal injection. A fifth group of BALB/c mice was treated with 3 mg/kg of warfarin, administered intraperioneally daily for 6 days. Four hours after the last dose of warfarin, mice were sacrificed. A control group of BALB/c mice were treated with PBS, administered subcutaneously twice a week for 3 weeks. Two days after the last dose of PBS, mice were anesthetized with 150 mg/kg ketamine mixed with 10 mg/kg xylazine administered by intraperitoneal injection. Thrombus formation was induced with FeCl3 in groups of mice except the first control group.

platelet factor-4 (PF-4) = assay: Thrombus formation by real-time RT-PCR quantification of PF-4 in the FeCl3 induced venous thrombosis model; format: in vivo, mouse; details: for PF-4 (percentage of PF-4 as compared to the PBS-treated control groups): BALB/c mice, vena cava, FeCl3
Protocol: as §1, §2
Real-time RT-PCR quantification of platelet factor-4 (PF-4) was used to quantify platelets in the vena cava as a measure of thrombus formation. Results are presented as a percentage of PF-4 in ISIS 403102, as compared to the two PBS-treated control groups. […] Therefore, antisense oligonucleotides are useful for inhibiting thrombus and clot formation.
ISIS 403102 and warfarin (Coumadin®) were evaluated in BALB/c mice. Four groups of BALB/c mice were treated with 5 mg/kg, 10 mg/kg, 20 mg/kg, or 40 mg/kg of ISIS 403102, administered subcutaneously twice a week for 3 weeks. Two days after receiving the last dose of ISIS 403102, mice were anesthetized with 150 mg/kg ketamine mixed with 10 mg/kg xylazine administered by intraperitoneal injection. Six additional groups of BALB/c mice was treated with 0.5 mg/kg, 1 mg/kg, 2 mg·kg, 3 mg/kg, 4 mg/kg, or 5 mg/kg of warfarin, administered intraperioneally daily for 6 days. Four hours after the last dose of warfarin, mice were sacrificed. A control group of BALB/c mice were treated with PBS, administered subcutaneously twice a week for 3 weeks. Two days after the last dose of PBS, mice were anesthetized with 150 mg/kg ketamine mixed with 10 mg/kg xylazine administered by intraperitoneal injection. Thrombus formation was induced with FeCl3 in groups of mice except the first control group.
Real-time RT-PCR quantification of platelet factor-4 (PF-4) was used to quantify platelets in the vena cava as a measure of thrombus formation. Results are presented as a percentage of PF-4 in ISIS 403102 or warfarin treated mice, as compared to the two PBS-treated control groups. […] Therefore, ISIS antisense oligonucleotides are useful for inhibiting thrombus and clot formation.

[1] = Example 14, 25, 37.5, 50 mg/kg twice a week for 3 weeks

Row | Substance | % Inhibition (human Factor 7 mRNA) | % inhibition of Factor 7 mRNA (murine Factor 7 mRNA; Example 14, 25 mg/kg subcutaneously twice a week for 3 weeks) | % inhibition of Factor 7 mRNA (murine Factor 7 mRNA; Example 14, 37.5 mg/kg subcutaneously twice a week for 3 weeks) | % inhibition of Factor 7 mRNA (murine Factor 7 mRNA; Example 14, 50 mg/kg subcutaneously twice a week for 3 weeks) | reduction of Factor 7 mRNA in comparison to the PBS control (murine Factor 7 mRNA; [1]) | reduction of Factor 7 mRNA in comparison to the PBS control (murine Factor 7 mRNA; Example 15, 5, 10, 20, 40 mg/kg subcutaneously twice a week for 3 weeks) | % inhibition of Factor 7 mRNA, relative to PBS control (murine Factor 7 mRNA; Example 15, 5 mg/kg s.c. twice a week for 3 weeks) | % inhibition of Factor 7 mRNA, relative to PBS control (murine Factor 7 mRNA; Example 15, 10 mg/kg s.c. twice a week for 3 weeks) | % inhibition of Factor 7 mRNA, relative to PBS control (murine Factor 7 mRNA; Example 15, 20 mg/kg s.c. twice a week for 3 weeks) | % inhibition of Factor 7 mRNA, relative to PBS control (murine Factor 7 mRNA; Example 15, 40 mg/kg s.c. twice a week for 3 weeks) | PF-4 in comparison to the PBS control (platelet factor-4 (PF-4); [1]) | PF-4 (percentage of PF-4 as compared to the PBS-treated control groups) (platelet factor-4 (PF-4); Example 14, 25 mg/kg s.c. twice a week for 3 weeks) | PF-4 (percentage of PF-4 as compared to the PBS-treated control groups) (platelet factor-4 (PF-4); Example 14, 37.5 mg/kg s.c. twice a week for 3 weeks) | PF-4 (percentage of PF-4 as compared to the PBS-treated control groups) (platelet factor-4 (PF-4); Example 14, 50 mg/kg s.c. twice a week for 3 weeks) | PF-4 (percentage of PF-4 as compared to the PBS-treated control groups) (platelet factor-4 (PF-4); Example 16, 5 mg/kg s.c. twice a week for 3 weeks) | PF-4 (percentage of PF-4 as compared to the PBS-treated control groups) (platelet factor-4 (PF-4); Example 16, 10 mg/kg s.c. twice a week for 3 weeks) | PF-4 (percentage of PF-4 as compared to the PBS-treated control groups) (platelet factor-4 (PF-4); Example 16, 20 mg/kg s.c. twice a week for 3 weeks) | PF-4 (percentage of PF-4 as compared to the PBS-treated control groups) (platelet factor-4 (PF-4); Example 16, 40 mg/kg s.c. twice a week for 3 weeks) | PF-4 in comparison to the PBS control (platelet factor-4 (PF-4); Example 16, dosages of 5 mg/kg and higher, twice a week for 3 weeks)
1 | 407939 (antisense eT*eG*e[5mC]*eA*eG*d[5mC]*d[5mC]*d[5mC]*dG*dG*d[5mC]*dA*d[5mC]*d[5mC]*d[5mC]*eA*eG*e[5mC]*eG*eA) [compound 407939] | 81% | – | – | – | – | – | – | – | – | – | – | – | – | – | – | – | – | – | –
2 | CCATAGAACAGCTTCACAGG (sugars from the 5' end e5 d10 e5, backbone and methylation of C not given here) [ISIS 403102] | – | 24% | 74% | 69% | significant dose-dependent reduction of Factor 7 mRNA | significant dose-dependent reduction of Factor 7 mRNA | 59% | 84% | 95% | 99% | reduction of PF-4 | 34% | 24% | 24% | 69% | 22% | 41% | 38% | dose-dependent reduction of PF-4
